Assay results as given in US20020137929A1, “1 - (3-heterocyclylphenyl) isothiourea, -isourea, -guanidine and -amidine herbicidal agents” (Intellectual Property Department, BASF Aktiengesellschaft, priority 1998, published 2002).

Key:
[1] = test system: ECHORC (Watergrass (Calif.)); assay: Postemergence weed control under flooded paddy conditions; type: in vivo, Echinochloa oryzoides; conditions: postemergence weeds, rated 3 to 4 weeks after treatment
Method in brief: (§1)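 Weeds 3 to 5 cm tall and rice seedlings at the 1.5 to 2.5 leaf stage were flooded, with water held 1.5 to 3 cm above the soil. Compounds in 50/50 v/v aqueous/acetone went into the flood water at about 0.0313 to 0.500 kg/ha. Visual 0-9 ratings versus control were made 3 to 4 weeks later.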

[2] = test system: SETVI (Foxtail, Green); assay: Preemergence herbicidal evaluation; type: in vivo, Setaria viridis; conditions: rated 4-5 weeks after treatment
Method in brief: (§2)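 Greenhouse preemergence test: seed-soil mix sown on ~1 inch soil; aqueous acetone spray at equivalent of ~0.0156–0.500 kg/ha; greenhouse-held and watered; scored 0–9 visually at 4–5 weeks.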

[3] = test system: GALAP (Galium); assay: Postemergence herbicidal evaluation; type: in vivo, Galium aparine
Method in brief: (§3)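 Rate range approx. 0.0156–0.500 kg/ha. Foliar application at 40 psi to ~2-week seedlings; surfactant 0.5% TWEEN 20 in 50/50 acetone/water. Evaluation 4–5 wk post-treatment by 0–9 visual injury score, means of replicate tests.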

[4] = test system: IPOHE (Morningglory, Ivyleaf); assay: Preemergence herbicidal evaluation; type: in vivo, Ipomoea hederacea; conditions: rated 4-5 weeks after treatment
Method in brief: as §2

[5] = test system: TRZAWR (Wheat, Winter, cv Riband); assay: Postemergence herbicidal evaluation; type: in vivo, Triticum aestivum
Method in brief: as §3

[6] = test system: SAGPY (Arrowhead (Pygmaea)); assay: Postemergence weed control under flooded paddy conditions; type: in vivo, Sagittaria pygmaea; conditions: postemergence weeds, rated 3 to 4 weeks after treatment
Method in brief: as §1

[7] = test system: ABUTH (Velvetleaf); assay: Preemergence herbicidal evaluation; type: in vivo, Abutilon theophrasti; conditions: rated 4-5 weeks after treatment
Method in brief: as §2

[8] = test system: MOOVA (Monochoria); assay: Preemergence weed control under flooded paddy conditions; type: in vivo, Monochoria vaginalis; conditions: rated 3-4 weeks after treatment
Method in brief: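 Visual injury scored 0-9 against control three to four weeks post-treatment, greenhouse-grown. Application: acetone/water (50/50) solutions dosed directly into flood water (1.5-3 cm over silt loam, planted top 0.5 cm), roughly 0.0313 to 0.500 kg/ha active ingredient.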

[9] = test system: SETVI (Foxtail, Green); assay: Postemergence herbicidal evaluation; type: in vivo, Setaria viridis
Method in brief: as §3

[10] = test system: ECHORC (Watergrass (Calif.)); assay: Preemergence weed control under flooded paddy conditions; type: in vivo, Echinochloa oryzoides; conditions: rated 3-4 weeks after treatment
Method in brief: (§4)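 Seeds or propagules sown in silt loam kept flooded 1.5-3 cm; compounds in 50/50 acetone/water pipetted into flood water at about 0.0313 to 0.500 kg/ha. Greenhouse; visual 0-9 rating versus untreated control 3-4 weeks after treatment.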

[11] = test system: CYPIR (Rice Flatsedge); assay: as above; type: in vivo, Cyperus iria; conditions: rated 3-4 weeks after treatment
Method in brief: as §4

[12] = test system: IPOHE (Morningglory, Ivyleaf); assay: Postemergence herbicidal evaluation; type: in vivo, Ipomoea hederacea
Method in brief: as §3

[13] = test system: ECHCG (Barnyardgrass); assay: Preemergence herbicidal evaluation; type: in vivo, Echinochloa crus-galli; conditions: rated 4-5 weeks after treatment
Method in brief: as §2

[14] = test system: ZEAMX (Corn, Field); assay: Preemergence herbicidal evaluation; type: in vivo, Zea mays; conditions: rated 4-5 weeks after treatment
Method in brief: as §2

In the case of C=CCN1C(=O)C(CC(=O)OC)SC1=Nc1cc(-n2c(=O)cc(C(F)(F)F)n(C)c2=O)c(F)cc1Cl (stereo not drawn) [Compound 64, Methyl 3-allyl-2-{{2-chloro-5-[3,6-dihydro-3-methyl-2,6-dioxo-4-(trifluoromethyl)-1(2H)-pyrimidinyl]-4-fluorophenyl}imino}-4-oxo-5-thiazolidineacetate], the “Herbicidal rating ECHORC” value ([1]; Rate 0.0313 kg/ha) is reported as 5.0, the “Herbicidal rating ECHORC” value ([1]; Rate 0.0625 kg/ha) is reported as 6.0 and the “Herbicidal rating ECHORC” value ([1]; Rate 0.1250 kg/ha) is reported as 6.0. For the same molecule, the “Herbicidal rating ECHORC” value ([1]; Rate 0.2500 kg/ha) was 9.0, the “Preemergence herbicidal rating SETVI” value ([2]; rate 0.0156 kg/ha) was 0.0 and the “Preemergence herbicidal rating SETVI” value ([2]; rate 0.0313 kg/ha) was 0.0. The “Preemergence herbicidal rating SETVI” value ([2]; rate 0.0625 kg/ha) was 9.0, the “Preemergence herbicidal rating SETVI” value ([2]; rate 0.1250 kg/ha) was 7.0 and the “Preemergence herbicidal rating SETVI” value ([2]; rate 0.2500 kg/ha) was 9.0. For the same molecule, the “Postemergence herbicidal rating GALAP” value ([3]; Rate 0.0158 kg/ha) was 5.0, the “Postemergence herbicidal rating GALAP” value ([3]; Rate 0.0315 kg/ha) was 7.0 and the “Postemergence herbicidal rating GALAP” value ([3]; Rate 0.0630 kg/ha) was 7.0. The “Preemergence herbicidal rating IPOHE” value ([4]; rate 0.0156 kg/ha) was 0.0, the “Preemergence herbicidal rating IPOHE” value ([4]; rate 0.0313 kg/ha) was 0.0 and the “Preemergence herbicidal rating IPOHE” value ([4]; rate 0.0625 kg/ha) was 9.0. For the same molecule, the “Preemergence herbicidal rating IPOHE” value ([4]; rate 0.1250 kg/ha) was 9.0, the “Preemergence herbicidal rating IPOHE” value ([4]; rate 0.2500 kg/ha) was 9.0 and the “Postemergence herbicidal rating TRZAWR” value ([5]; Rate 0.0158 kg/ha) was 6.0. For the same molecule, the “Postemergence herbicidal rating TRZAWR” value ([5]; Rate 0.0315 kg/ha) was 6.0, the “Postemergence herbicidal rating TRZAWR” value ([5]; Rate 0.0630 kg/ha) was 7.0 and the “Herbicidal rating SAGPY” value ([6]; Rate 0.0313 kg/ha) was 0.0. For the same molecule, the “Herbicidal rating SAGPY” value ([6]; Rate 0.0625 kg/ha) was 3.0, the “Herbicidal rating SAGPY” value ([6]; Rate 0.1250 kg/ha) was 5.0 and the “Herbicidal rating SAGPY” value ([6]; Rate 0.2500 kg/ha) was 8.0. For the same molecule, the “Preemergence herbicidal rating ABUTH” value ([7]; rate 0.0156 kg/ha) was 1.0, the “Preemergence herbicidal rating ABUTH” value ([7]; rate 0.0313 kg/ha) was 9.0 and the “Preemergence herbicidal rating ABUTH” value ([7]; rate 0.0625 kg/ha) was 9.0. The “Preemergence herbicidal rating ABUTH” value ([7]; rate 0.1250 kg/ha) was 9.0, the “Preemergence herbicidal rating ABUTH” value ([7]; rate 0.2500 kg/ha) was 9.0 and the “MOOVA herbicidal effect rating” value ([8]; 0.0313 kg/ha) was 7.0. The “MOOVA herbicidal effect rating” value ([8]; 0.0625 kg/ha) was 9.0, the “MOOVA herbicidal effect rating” value ([8]; 0.1250 kg/ha) was 9.0 and the “MOOVA herbicidal effect rating” value ([8]; 0.2500 kg/ha) was 9.0. For the same molecule, the “Postemergence herbicidal rating SETVI” value ([9]; Rate 0.0158 kg/ha) was 6.0, the “Postemergence herbicidal rating SETVI” value ([9]; Rate 0.0315 kg/ha) was 7.0 and the “Postemergence herbicidal rating SETVI” value ([9]; Rate 0.0630 kg/ha) was 9.0. The “ECHORC herbicidal effect rating” value ([10]; 0.0313 kg/ha) was 5.0, the “ECHORC herbicidal effect rating” value ([10]; 0.0625 kg/ha) was 6.0 and the “ECHORC herbicidal effect rating” value ([10]; 0.1250 kg/ha) was 6.0. The “ECHORC herbicidal effect rating” value ([10]; 0.2500 kg/ha) was 9.0, the “CYPIR herbicidal effect rating” value ([11]; 0.0313 kg/ha) was 0.0 and the “CYPIR herbicidal effect rating” value ([11]; 0.0625 kg/ha) was 2.0. The “CYPIR herbicidal effect rating” value ([11]; 0.1250 kg/ha) was 2.0, the “CYPIR herbicidal effect rating” value ([11]; 0.2500 kg/ha) was 7.0 and the “Postemergence herbicidal rating IPOHE” value ([12]; Rate 0.0158 kg/ha) was 9.0. The “Postemergence herbicidal rating IPOHE” value ([12]; Rate 0.0315 kg/ha) was 9.0, the “Postemergence herbicidal rating IPOHE” value ([12]; Rate 0.0630 kg/ha) was 9.0 and the “Preemergence herbicidal rating ECHCG” value ([13]; rate 0.0156 kg/ha) was 0.0. The “Preemergence herbicidal rating ECHCG” value ([13]; rate 0.0313 kg/ha) was 0.0, the “Preemergence herbicidal rating ECHCG” value ([13]; rate 0.0625 kg/ha) was 1.0 and the “Preemergence herbicidal rating ECHCG” value ([13]; rate 0.1250 kg/ha) was 3.0. For the same molecule, the “Preemergence herbicidal rating ECHCG” value ([13]; rate 0.2500 kg/ha) was 6.0, the “Preemergence herbicidal rating ZEAMX” value ([14]; rate 0.0156 kg/ha) was 0.0 and the “Preemergence herbicidal rating ZEAMX” value ([14]; rate 0.0313 kg/ha) was 0.0. The “Preemergence herbicidal rating ZEAMX” value ([14]; rate 0.0625 kg/ha) was 1.0, the “Preemergence herbicidal rating ZEAMX” value ([14]; rate 0.1250 kg/ha) was 3.0 and the “Preemergence herbicidal rating ZEAMX” value ([14]; rate 0.2500 kg/ha) was 7.0.
